Reference: PMC7705960, “Discovery of a Beetroot Protease Inhibitor to Identify and Classify Plant-Derived Cystine Knot Peptides” (Journal of Natural Products, 2020)
Where “and” joins values, the source holds several entries; their conditions need not be identical. Equal values may be shown once. Read-outs that look alike come from different tables or passages of the source. Positions of bridges follow the written chain, without caps; N, C: chain ends. Residues, ends and D or L forms follow the SMILES beside them.

Tests used:
[1] = molecular target: T1, Bovine β-trypsin (Bos taurus, UniProt P00760); experiment: Trypsin inhibition assay (colorimetric, benzoylarginine-4-nitroanilide); type: biochemical
T1 sequence (P00760 24-246): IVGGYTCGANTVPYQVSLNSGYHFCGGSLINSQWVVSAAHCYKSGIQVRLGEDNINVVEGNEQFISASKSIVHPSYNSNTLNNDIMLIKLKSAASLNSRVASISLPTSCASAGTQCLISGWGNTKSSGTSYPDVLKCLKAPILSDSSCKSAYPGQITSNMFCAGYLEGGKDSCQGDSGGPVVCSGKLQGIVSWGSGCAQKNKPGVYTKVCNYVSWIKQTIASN
Procedure: Based on the classification of bevuTI-I as putative trypsin inhibitor of the M. jalapa trypsin inhibitor family, enzymatic inhibition assays were performed.[33] Bovine β-trypsin and bevuTI-I were used in a colorimetric trypsin inhibition assay to measure concentration-dependent inhibition.
The trypsin inhibition assay was performed in 96-well microtiter plates. To 140 μL of a 20 mM Tris-HCl buffer (pH 8.0) was added 20 μL of inhibitor (dissolved in buffer)/buffer (negative control). Afterward, 20 μL of bovine trypsin (0.125 mg/mL, Sigma-Aldrich) was added, and the plate was incubated for 10 min at 22 °C. A volume of 20 μL of benzoylarginine-4-nitroanilide hydroxychloride (Bachem, Bubendorf, Switzerland) dissolved in 20% DMSO at a concentration of 900 μM was added automatically with the dispenser of the Synergy H4 Hybrid reader (BioTek, VM, USA). The rate of enzymatic reaction with different concentrations of inhibitor was measured for 1 h every 5 min at a wavelength of 410 nm. For calculations, the linear portion of data, corresponding to the initial rate of reaction, was used. The highest rate was set to 100% activity. A nonlinear regression (log inhibitor vs normalized response) was performed with GraphPad Prism version 8.0.0 for Windows (GraphPad Software, CA, USA). The top and bottom parameters were set to 100% and 0%, respectively.

[2] = molecular target: T2, human POP (Homo sapiens, UniProt P48147); experiment: Prolyl oligopeptidase (POP) inhibition assay (fluorescence, Z-Gly-Pro-AMC); type: biochemical; conditions: synthetic bevuTI-I; recombinant human POP 50 ng, Z-Gly-Pro-AMC 45 μM, 20 mM HEPES pH 7.4, 150 mM NaCl, 1 mM EDTA, 0.5 mM DTT, ex 360/em 450 nm; mean ± SD of three biological replicates
T2 construct: The full-length cDNA was cloned into the BamHI and EcoRI cloning sites of the commercially available expression plasmid pGEX-6P1; GST (from pGEX-6P1) (N, cleaved yes); made in house; host or cells: E. coli BL21
T2 sequence (P48147 1-710): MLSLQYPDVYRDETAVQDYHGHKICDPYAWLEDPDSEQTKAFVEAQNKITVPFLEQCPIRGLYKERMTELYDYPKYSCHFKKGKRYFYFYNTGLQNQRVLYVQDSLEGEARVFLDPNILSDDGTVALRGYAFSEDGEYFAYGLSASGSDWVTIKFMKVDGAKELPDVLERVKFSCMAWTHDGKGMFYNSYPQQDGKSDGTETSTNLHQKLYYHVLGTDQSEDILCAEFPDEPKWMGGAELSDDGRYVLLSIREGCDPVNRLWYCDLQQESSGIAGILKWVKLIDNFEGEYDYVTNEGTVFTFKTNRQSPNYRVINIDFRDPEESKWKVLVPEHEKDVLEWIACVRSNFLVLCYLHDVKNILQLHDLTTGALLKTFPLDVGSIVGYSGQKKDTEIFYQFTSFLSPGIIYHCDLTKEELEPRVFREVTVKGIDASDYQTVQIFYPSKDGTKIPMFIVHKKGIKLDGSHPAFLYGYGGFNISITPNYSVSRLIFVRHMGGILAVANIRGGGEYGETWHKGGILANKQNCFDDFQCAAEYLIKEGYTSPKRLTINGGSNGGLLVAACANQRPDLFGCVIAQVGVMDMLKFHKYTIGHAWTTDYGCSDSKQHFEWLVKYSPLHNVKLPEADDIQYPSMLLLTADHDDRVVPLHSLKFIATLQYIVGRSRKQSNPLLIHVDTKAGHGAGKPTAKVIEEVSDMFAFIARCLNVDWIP
Description: As it was previously reported, plant cystine knot peptides belonging to the cyclotide family have the ability to inhibit human prolyl endopeptidase.[33] Thus, we were interested whether the bevuTI-I was also able to inhibit this enzyme. Like psysol-2, bevuTI-I has three proline residues and presumably the same cysteine connectivity.
Recombinant human POP (NM_002726.4) was produced in E. coli BL21 (New England Biolabs, MA, USA). The full-length cDNA was cloned into the BamHI and EcoRI cloning sites of the commercially available expression plasmid pGEX-6P1 by a customized manufacturer service from GenScript (Leiden, The Netherlands). […] The protein concentration of the eluate was determined by the bicinchoninic acid assay (ThermoFisher Scientific), and aliquots of stock protease in storage buffer (including 20% glycerol) were kept at −80 °C. […] Enzyme activity was measured by fluorescence signal as a result of free fluorophore from the Z-Gly-Pro-AMC substrate with an excitation of 360 ± 20 nm and emission of 450 ± 20 nm. Kinetic inhibition data were recorded in 5 min intervals, and the amount of inhibition was calculated from the steepness of the linear initial velocity. […] Concentration–response experiments were evaluated with a fitted nonlinear regression function in GraphPad Prism.

## CC[C@H](C)[C@@H]1NC(=O)[C@H](CCCNC(=N)N)NC(=O)[C@H](CC(C)C)NC(=O)[C@H](Cc2c[nH]c3ccccc23)NC(=O)[C@H](CCC(N)=O)NC(=O)[C@H](Cc2c[nH]cn2)NC(=O)[C@@H]2CCCN2C(=O)[C@H](C(C)C)NC(=O)[C@@H]2CSSC[C@@H]3NC(=O)[C@H]([C@@H](C)CC)NC(=O)[C@H]([C@@H](C)O)NC(=O)CNC(=O)[C@H](CO)NC(=O)[C@@H]4CCCN4C(=O)[C@H]([C@@H](C)O)NC(=O)[C@@H](N)CSSC[C@H](NC(=O)[C@H](CSSC[C@@H](C(=O)N[C@@H](C)C(=O)O)NC(=O)[C@H](C(C)C)NC(=O)[C@H](Cc4ccccc4)NC1=O)NC(=O)[C@H](CCC(N)=O)NC(=O)[C@H](CCC(=O)O)NC(=O)[C@@H]1CCCN1C(=O)[C@H](C)NC(=O)[C@H](CCC(=O)O)NC(=O)[C@@H]1CCCN1C(=O)[C@H](CO)NC3=O)C(=O)N[C@@H](CO)C(=O)N[C@@H](CC(N)=O)C(=O)N[C@@H](CO)C(=O)N2 [bevuTI-I, Beta vulgaris trypsin inhibitor I] (H-CTPSGTICSPEAPEQCCSNSCVPHQWLRIFVCA-OH; disulfide 1-17, 8-21, 16-32)
[1]
  IC50: 471 nM and 568 nM
[2]
  IC50: 11000 ± 5300 nM

B1: Kunitz-type soybean trypsin inhibitor: well-characterized Kunitz-type soybean trypsin inhibitor, used as control (protein, UniProt P01070 25-205, looked up)
Trypsin inhibitor A: DFVLDNEGNPLENGGTYYILSDITAFGGIRAAPTGNERCPLTVVQSRNELDKGIGTIISSPYRIRFIAEGHPLSLKFDSFAVIMLCVGIPTEWSVVEDLPEGPAVKIGENKDAMDGWFRLERVSDDEFNNYKLVFCPQQAEDDKCGDIGISIDHDDGTRRLVVSKNKPLVVQFQKLDKESL
[1]; control inhibitor (Glycine max Kunitz-type), bovine trypsin, 20 mM Tris-HCl pH 8.0, 10 min pre-incubation at 22 °C, 410 nm, read-out: IC50, trypsin inhibition
  IC50: 198 ± 72 nM
